Test results as given in ChEMBL document CHEMBL2021850, “Steroidal C-21 heteroaryl thioethers. Part 3: pregn-4-eno-[3,2-c]pyrazole fused A ring modified steroids as selective glucocorticoid receptor modulators (dissociated steroids)” (Bioorg Med Chem Lett, 2012).

Key:
Glucocorticoid receptor [1] = molecular target: T1, Glucocorticoid receptor (Homo sapiens, UniProt P04150); assay: Transactivation activity at glucocorticoid receptor in human HepG2 cells assessed as induction of tyrosine aminotransferase; type: ADME, cell-based
T1 sequence (P04150 whole entry): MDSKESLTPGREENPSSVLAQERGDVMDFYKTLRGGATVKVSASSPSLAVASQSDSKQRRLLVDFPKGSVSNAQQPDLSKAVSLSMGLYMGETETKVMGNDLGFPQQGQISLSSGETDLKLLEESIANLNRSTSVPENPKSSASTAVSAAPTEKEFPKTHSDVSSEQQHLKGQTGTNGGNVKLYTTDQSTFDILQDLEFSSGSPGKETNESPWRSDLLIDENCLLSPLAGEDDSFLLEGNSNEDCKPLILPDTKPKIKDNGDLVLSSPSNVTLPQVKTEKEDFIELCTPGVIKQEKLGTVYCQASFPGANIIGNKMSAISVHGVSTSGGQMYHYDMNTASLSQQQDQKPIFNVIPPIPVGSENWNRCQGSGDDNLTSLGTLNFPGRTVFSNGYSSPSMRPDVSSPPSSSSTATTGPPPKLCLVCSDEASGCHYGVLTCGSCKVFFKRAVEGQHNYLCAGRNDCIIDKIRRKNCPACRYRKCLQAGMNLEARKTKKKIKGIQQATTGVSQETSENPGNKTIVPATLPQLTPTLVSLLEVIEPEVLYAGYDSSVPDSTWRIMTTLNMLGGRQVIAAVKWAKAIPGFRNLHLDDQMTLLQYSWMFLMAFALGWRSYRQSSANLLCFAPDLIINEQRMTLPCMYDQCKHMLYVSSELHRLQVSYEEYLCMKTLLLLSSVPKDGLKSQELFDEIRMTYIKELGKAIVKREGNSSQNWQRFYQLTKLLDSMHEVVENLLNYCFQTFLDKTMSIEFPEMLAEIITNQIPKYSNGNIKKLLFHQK

Glucocorticoid receptor [2] = molecular target: T1, Glucocorticoid receptor; assay: Transactivation activity at human glucocorticoid receptor in cells co-expressing GRE by luciferase reporter gene assay relative to control; settings: read-out: Efficacy
Glucocorticoid receptor [3] = molecular target: T1, Glucocorticoid receptor; assay: Transrepression activity at glucocorticoid receptor in human H292 cells assessed as inhibition of TNF-induced IL8 production; type: cell-based
Glucocorticoid receptor [4] = molecular target: T2, Glucocorticoid receptor (Rattus norvegicus, UniProt P06536); assay: Transactivation activity at glucocorticoid receptor in rat H4II-E cells assessed as induction of tyrosine aminotransferase; type: ADME, cell-based
T2 sequence (P06536 whole entry): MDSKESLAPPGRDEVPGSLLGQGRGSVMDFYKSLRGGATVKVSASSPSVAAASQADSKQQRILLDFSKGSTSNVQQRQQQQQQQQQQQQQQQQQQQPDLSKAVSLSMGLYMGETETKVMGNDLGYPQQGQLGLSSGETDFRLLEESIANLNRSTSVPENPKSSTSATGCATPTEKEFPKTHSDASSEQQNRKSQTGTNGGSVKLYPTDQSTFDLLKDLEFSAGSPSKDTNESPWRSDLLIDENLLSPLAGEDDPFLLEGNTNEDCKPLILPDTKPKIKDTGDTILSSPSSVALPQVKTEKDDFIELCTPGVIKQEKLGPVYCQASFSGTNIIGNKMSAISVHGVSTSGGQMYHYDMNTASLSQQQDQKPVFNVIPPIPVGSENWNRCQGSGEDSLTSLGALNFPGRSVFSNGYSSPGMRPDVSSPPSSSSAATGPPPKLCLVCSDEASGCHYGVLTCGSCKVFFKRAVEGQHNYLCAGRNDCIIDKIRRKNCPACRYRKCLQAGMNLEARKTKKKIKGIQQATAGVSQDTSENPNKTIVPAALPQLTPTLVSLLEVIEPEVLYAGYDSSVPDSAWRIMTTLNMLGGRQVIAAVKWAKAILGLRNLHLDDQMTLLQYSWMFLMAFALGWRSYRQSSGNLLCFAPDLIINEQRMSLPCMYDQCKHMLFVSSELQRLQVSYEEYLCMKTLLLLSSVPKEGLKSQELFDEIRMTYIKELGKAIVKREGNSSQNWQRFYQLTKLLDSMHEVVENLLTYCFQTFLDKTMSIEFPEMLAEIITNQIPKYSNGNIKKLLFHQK

Glucocorticoid receptor [5] = molecular target: T1, Glucocorticoid receptor; assay: Transactivation activity at human glucocorticoid receptor in cells co-expressing GRE by luciferase reporter gene assay; settings: read-out: IC50 (the source's name)
[6] = Cmax in po dosed rat; type: ADME, organism-based; parameters: route oral; settings: in vivo
Rattus norvegicus [7] = assay: Transactivation activity in Brown Norway rat lung inflammation model assessed as thymolysis measuring decrease in thymus weight at 10 mg/kg, po for 3 days; type: organism-based; parameters: dose 10 mg/kg, route oral; scale not given: the % may be the effect or the level left; settings: in vivo, 72 h
[8] = AUC in po dosed rat; type: ADME, organism-based; settings: plasma
Rattus norvegicus [9] = assay: Antiinflammatory activity in Brown Norway rat lung inflammation model assessed as total cell inhibition at 10 mg/kg, po for 3 days; type: functional; settings: 72 h
Glucocorticoid receptor [10] = molecular target: T1, Glucocorticoid receptor; assay: Inhibition of human glucocorticoid receptor
Rattus norvegicus [11] = assay: Antiinflammatory activity in Brown Norway rat lung inflammation model assessed as total cell inhibition at 2 mg/kg, it; type: functional; settings: route endotracheal

SMILES | Emax (Glucocorticoid receptor [2]) | Activity (Rattus norvegicus [7]) | IC50 (Glucocorticoid receptor [10]) | IC50 (Glucocorticoid receptor [1]) | IC50 (Glucocorticoid receptor [3]) | IC50 (Glucocorticoid receptor [4]) | EC50 (Glucocorticoid receptor [5]) | Cmax [6] | AUC [8] | inhibition in vivo at 10 mg/kg (Rattus norvegicus [9]) | inhibition in vivo at 2 mg/kg (Rattus norvegicus [11])
Cc1nc(SCC(=O)[C@@]2(O)CC[C@H]3[C@@H]4CCC5=Cc6c(cnn6C6CCCCC6)C[C@]5(C)[C@H]4[C@@H](O)C[C@@]32C)sc1C | 88% |  |  | 168 nM | 2.8 nM | 135 nM | 31.8 nM |  |  |  | 
C[C@]12Cc3cnn(-c4ccc(F)cc4)c3C=C1CC[C@@H]1[C@@H]2[C@@H](O)C[C@@]2(C)[C@H]1CC[C@]2(O)C(=O)CSc1nc2ncccc2o1 |  | 70% |  | 38.6 nM | 0.32 nM | 13.3 nM |  | 348 ng/mL | 1630 ng·h/mL | 48% | 
C[C@]12CCC(=O)C=C1CC[C@@H]1[C@@H]2[C@@H](O)C[C@@]2(C)[C@H]1CC[C@]2(O)C(=O)CSc1ccc2ccccc2n1 | 0% |  | 6.6 nM |  | 89.3 nM |  |  |  |  |  | 
C[C@]12Cc3cnn(-c4ccccc4)c3C=C1CC[C@@H]1[C@@H]2[C@@H](O)C[C@@]2(C)[C@H]1CC[C@]2(O)C(=O)CSc1cnc2ccccc2n1 | 68% |  |  | 226 nM | 5.36 nM | 113 nM |  | 21 ng/mL | 64 ng·h/mL |  | 28%
Cn1c(SCC(=O)[C@@]2(O)CC[C@H]3[C@@H]4CCC5=Cc6c(cnn6-c6ccccc6)C[C@]5(C)[C@H]4[C@@H](O)C[C@@]32C)nc2ccccc21 | 64% |  |  | 66.7 nM | 4.7 nM | 78 nM | 19.1 nM |  |  |  | 
C[C@]12Cc3cnn(-c4ccccc4)c3C=C1CC[C@@H]1[C@@H]2[C@@H](O)C[C@@]2(C)[C@H]1CC[C@]2(O)C(=O)CSc1ccccn1 | 102% |  |  | 596 nM | 1.5 nM | 225 nM | 8.4 nM |  |  |  | 
C[C@]12Cc3cnn(-c4ccc(F)cc4)c3C=C1CC[C@@H]1[C@@H]2[C@@H](O)C[C@@]2(C)[C@H]1CC[C@]2(O)C(=O)CSc1cnc2ccccc2n1 |  |  |  |  | 1.99 nM |  |  |  |  |  | 9%
C[C@]12Cc3cnn(-c4ccccc4)c3C=C1CC[C@@H]1[C@@H]2[C@@H](O)C[C@@]2(C)[C@H]1CC[C@]2(O)C(=O)CSc1nc2ncccc2o1 | 83% | 67% |  | 37.7 nM | 0.89 nM | 33.8 nM |  | 467 ng/mL | 2030 ng·h/mL | 62% | 
C[C@]12Cc3cnn(-c4ccccc4)c3C=C1CC[C@@H]1[C@@H]2[C@@H](O)C[C@@]2(C)[C@H]1CC[C@]2(O)C(=O)CSc1ccc2ccccc2n1 | 69% |  |  | 60.1 nM | 14.8 nM | 82.3 nM | 101 nM |  |  |  | 

Now from value to compound, other results behind:

Emax (Glucocorticoid receptor [2]) | Activity (Rattus norvegicus [7]) | IC50 (Glucocorticoid receptor [10]) | SMILES | IC50 (Glucocorticoid receptor [1]) | IC50 (Glucocorticoid receptor [3]) | IC50 (Glucocorticoid receptor [4]) | EC50 (Glucocorticoid receptor [5]) | Cmax [6] | AUC [8] | inhibition in vivo at 10 mg/kg (Rattus norvegicus [9]) | inhibition in vivo at 2 mg/kg (Rattus norvegicus [11])
86% |  |  | C=CCn1c(SCC(=O)[C@@]2(O)CC[C@H]3[C@@H]4CCC5=Cc6c(cnn6-c6ccccc6)C[C@]5(C)[C@H]4[C@@H](O)C[C@@]32C)nc2ccccc21 | 278 nM | 3.43 nM | 258 nM | 28.6 nM |  |  |  | 
57% |  | 4.3 nM | Cc1nc(SCC(=O)[C@@]2(O)CC[C@H]3[C@@H]4CCC5=CC(=O)CC[C@]5(C)[C@H]4[C@@H](O)C[C@@]32C)sc1C |  | 21.9 nM |  |  |  |  |  | 
8% | 5% | 8.9 nM | Cn1c(SCC(=O)[C@@]2(O)CC[C@@]3(C)[C@@H]4CCC5=CC(=O)CC[C@]5(C)[C@H]4[C@@H](O)C[C@@]32C)nc2ccccc21 |  | 56.1 nM |  |  | 115 ng/mL | 150 ng·h/mL | 39% | 
14% |  | 14.9 nM | C[C@]12CCC(=O)C=C1CC[C@@H]1[C@@H]2[C@@H](O)C[C@@]2(C)[C@H]1CC[C@]2(O)C(=O)CSc1ccccn1 |  | 23.8 nM |  |  |  |  |  | 
16% |  | 4.7 nM | C[C@]12CCC(=O)C=C1CC[C@@H]1[C@@H]2[C@@H](O)C[C@@]2(C)[C@H]1CC[C@]2(O)C(=O)CSc1nc2ncccc2s1 |  | 59.1 nM |  |  |  |  |  | 
1% | 0% |  | C[C@]12CCC(=O)C=C1CC[C@@H]1[C@@H]2[C@@H](O)C[C@@]2(C)[C@H]1CC[C@]2(O)C(=O)CSc1cnc2ccccc2n1 |  | 22.1 nM |  |  | 255 ng/mL | 274 ng·h/mL | 39% | 
 | 53% |  | C[C@]12C=CC(=O)C=C1CC[C@@H]1[C@@H]2[C@@H](O)C[C@@]2(C)[C@H]1CC[C@]2(O)C(=O)CO [PREDNISOLONE] |  |  |  |  | 682 ng/mL | 1250 ng·h/mL | 56% | 
35% |  | 3.9 nM | C[C@]12CCC(=O)C=C1CC[C@@H]1[C@@H]2[C@@H](O)C[C@@]2(C)[C@H]1CC[C@]2(O)C(=O)CSc1nc2ccccc2o1 |  | 26.7 nM |  |  |  |  |  | 
